Results taken from EP4813403A1, “USE OF GLP-1R/GIPR DOUBLE-TARGET AGONIST IN PREPARING ANIMAL DRUG” (Hangzhou Zhongmeihuadong Pharmaceutical Co., Ltd., priority 2023, dated 2025).

Columns and labels:
[1] = Repeated administration on male rats for 2 weeks (toxicity, toxicokinetics); assay type: in vivo, SD male rats; settings: for MTD: MTD for 2 weeks, rats; for dose at which decrease of the body weight was observed after the first administration / accumulation (toxicokinetic) / MTD at 336 h: SD male rats; for Gross Anatomy: SD male rats, 1, 3, 10 mg/kg twice a week for 2 weeks; for accumulation (toxicokinetic) / MTD at 336 h: administered twice a week for 2 weeks; for MTD at 336 h: Sprague-Dawley; for MTD at 336 h / safety window (based on exposure), times of that of Tirzepatide: rat, in vivo; for Safety Window (based on dosage): rat 2-week MTD versus efficacy dose
Procedure: 77 SD male rats (SPF grade) were selected and randomly divided into 10 groups based on body weight. Group 1 was the vehicle control group, including 5 animals. […] Group 5 to Group 7 were the groups administrated with the test substance 1; and Group 8 to Group 10 were the groups administrated with the test substance 2, each group including 8 animals, wherein 5 animals for primary test, and 3 animals for toxicokinetics test, and the administration dose was 1, 3 and 10 mg/kg respectively. Each of the above groups was continuously administered twice a week for 2 weeks (administrating at Day 1, Day 5, Day 8, Day 12 and Day 15).
During the experiment, the cage condition monitoring, detailed clinical observations, determination of the food consumption, determination of body weight, measurement of the blood biochemical and hematology indicator, investigation of the gross anatomy, weighing of the organ, studying on toxicokinetic were performed on all the groups of the animals.
Original data during each time period was tabulated. The average values and standard deviations and/or group change were calculated for each assay endpoint based on the group and sex. For each endpoint, the administrated group will be compared with the control group in the following aspect. A logarithmic conversion was performed to the endpoint data as desired prior to the start of the specific analyses.

rabbit GLP-1R = biological target: T1, rabbit GLP-1R (Oryctolagus cuniculus, UniProt G1SGD4); test: Agonistic activity on GLP-1R of different species (LANCE Ultra cAMP assay): rabbit; assay type: cell-based; settings: ratio of EC50 value of other species to human EC50 value
T1 construct: expressed in transfected cells
T1 sequence (G1SGD4 24-462): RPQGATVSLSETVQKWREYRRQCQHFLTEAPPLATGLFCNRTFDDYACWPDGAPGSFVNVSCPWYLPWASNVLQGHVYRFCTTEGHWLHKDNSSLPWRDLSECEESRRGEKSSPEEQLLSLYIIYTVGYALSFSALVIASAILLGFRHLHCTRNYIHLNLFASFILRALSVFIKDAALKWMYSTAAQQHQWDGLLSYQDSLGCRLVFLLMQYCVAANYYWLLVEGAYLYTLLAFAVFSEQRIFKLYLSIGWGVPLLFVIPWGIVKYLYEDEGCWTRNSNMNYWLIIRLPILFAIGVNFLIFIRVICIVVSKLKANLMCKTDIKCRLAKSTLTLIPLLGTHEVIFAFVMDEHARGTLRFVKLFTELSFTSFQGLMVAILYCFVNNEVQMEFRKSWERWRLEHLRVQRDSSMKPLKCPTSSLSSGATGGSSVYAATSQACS
Procedure: The in vitro agonistic activity of the compound of the present invention on GLP-1R was measured in cells stably expressing human, dog, mouse, rat, rabbit, and monkey GLP-1R (human GLP-1R-HEK, dog GLP-1R-HEK, mouse GLP-1R-HEK, rat GLP-1R- in HEK, rabbit GLP-1R-CHO, monkey GLP-1R-HEK cells). Human GLP-1R-HEK, dog GLP-1R-HEK, mouse GLP-1R-HEK, rat GLP-1R-HEK, rabbit GLP-1R-CHO, and monkey GLP-1R-HEK cells were resuspended in 1×Casein Stimulation Buffer (HBSS, 5 mM HEPES, 0.5 mM IBMX, 0.1% casein, pH7.4), and seeded into a 384-well cell culture plate at 9 µL/well (cell numbers being 1000, 1000, 1000, 1500, 1000, 1000 cells/well, respectively). 1 µL of 1×Casein Stimulation Buffer containing 10× compound was added to the above-mentioned 384-well cell culture plate. The plate was incubated at 37 °C for 30 minutes. After the incubation was completed, 5 µL of Eu-cAMP working solution and 5 µL of Ulight^TM-cAMP working solution were added sequentially, centrifuged and then incubated at room temperature for 1 hour. The readings at 665 nm and 620 nm were determined with a 330 nm excitation light on a microplate reader. The 665 nm/620 nm reading ratio was calculated. […] GraphPad was used to perform nonlinear regression according to the response percentage and the concentration of the compound added to obtain the EC50 value for each compound.

obese cats = test: Weight loss efficacy in obese cats; assay type: in vivo; settings: s.c. QW escalating doses
Procedure: This study evaluated the weight loss efficacy of the compound of this invention through multiple subcutaneous administrations to obese cats, with changes in cat body weights being monitored. The study involved cats aged 8 months or older with a body condition score (BCS) of ≥6. […] G11 (control group), G12, G13, and […]. . Group G11 served as the vehicle control group. […] The animals' body weights were measured at a fixed time every 7 days after administration, and food intake was measured once per day. Blood tests for routine and biochemical parameters were conducted before grouping and on […]. Body condition score (BCS), feline body mass index (FBMI), and abdominal circumference (AC) were measured once a week. The data were statistically analyzed using ANOVA. If ANOVA yielded statistical significance (p < 0.05) and the variances were homogeneous, Tukey's test was used for intergroup comparisons. If the variances were heterogeneous, Dunnett's T3 test was used. Results are presented as means and standard errors of the mean (Mean ± SEM). The significance level was set at 0.05, and both statistical and biological significance were considered in the analysis.

SMILES | MTD [1] | dose at which decrease of the body weight was observed after the first administration [1] | Gross Anatomy [1] | accumulation (toxicokinetic) [1] | MTD at 336 h [1] | Safety Window (based on dosage) [1] | safety window (based on exposure), times of that of Tirzepatide [1] | GLP-1R EC50 ratio (rabbit GLP-1R) | effective dose for weight loss (obese cats) | effective dose for weight loss (obese cats; equivalent of the nmol/kg dose) | maximum weight loss (obese cats; five administrations)
CC[C@H](C)[C@H](NC(=O)C(C)(C)NC(=O)[C@H](Cc1ccc(O)cc1)NC(=O)[C@H](CC(=O)O)NC(=O)[C@H](CO)NC(=O)[C@@H](NC(=O)C(C)(Cc1ccccc1)NC(=O)[C@@H](NC(=O)CNC(=O)[C@H](CCC(=O)O)NC(=O)C(C)(C)NC(=O)[C@@H](N)Cc1ccc(O)cc1)[C@@H](C)O)[C@@H](C)O)C(=O)NC(C)(C)C(=O)N[C@@H](CC(C)C)C(=O)N[C@@H](CC(=O)O)C(=O)N[C@@H](CCCCN)C(=O)N[C@@H](CCC(N)=O)C(=O)N[C@@H](C)C(=O)N[C@@H](CCC(N)=O)C(=O)N[C@@H](C)C(=O)N[C@@H](CCC(=O)O)C(=O)N[C@@H](Cc1ccccc1)C(=O)N[C@H](C(=O)N[C@@H](CCCCNC(=O)COCCOCCNC(=O)COCCOCCNC(=O)CC[C@H](NC(=O)CCCCCCCCCCCCCCCCCCCCC(=O)O)C(=O)O)C(=O)N[C@@H](Cc1c[nH]c2ccccc12)C(=O)N[C@@H](CC(C)C)C(=O)N[C@@H](CC(C)C)C(=O)N[C@@H](CCCCN)C(=O)NCC(=O)NCC(=O)N1CCC[C@H]1C(=O)N[C@@H](CO)C(=O)N[C@@H](CO)C(=O)NCC(=O)N[C@@H](C)C(=O)N1CCC[C@H]1C(=O)N1CCC[C@H]1C(=O)N1CCC[C@H]1C(=O)N[C@@H](CO)C(=O)N[C@@H](CCCCN)C(N)=O)C(C)C (stereo partly drawn) [Compound P014] | 1980 nmol/kg (MTD for 2 weeks) | ≥ 1 mg/kg | no abnormalities were found | no substantial accumulation | ≥ 10 mg/kg | 1319 | more than 4 times | – | – | – | –
CC[C@H](C)[C@H](NC(=O)C(C)(C)NC(=O)[C@H](Cc1ccc(O)cc1)NC(=O)[C@H](CC(=O)O)NC(=O)[C@H](CO)NC(=O)[C@@H](NC(=O)C(C)(Cc1ccccc1)NC(=O)[C@@H](NC(=O)CNC(=O)[C@H](CCC(=O)O)NC(=O)C(C)(C)NC(=O)[C@@H](N)Cc1ccc(O)cc1)[C@@H](C)O)[C@@H](C)O)C(=O)NC(C)(C)C(=O)N[C@@H](CC(C)C)C(=O)N[C@@H](CC(=O)O)C(=O)N[C@@H](CCCCN)C(=O)N[C@@H](CCC(N)=O)C(=O)N[C@@H](C)C(=O)N[C@@H](CCC(N)=O)C(=O)N[C@@H](C)C(=O)N[C@@H](CCC(=O)O)C(=O)N[C@@H](Cc1ccccc1)C(=O)N[C@H](C(=O)N[C@@H](CCCCNC(=O)COCCOCCNC(=O)COCCOCCNC(=O)COCCOCCNC(=O)CC[C@H](NC(=O)CCCCCCCCCCCCCCCCCCCCC(=O)O)C(=O)O)C(=O)N[C@@H](Cc1c[nH]c2ccccc12)C(=O)N[C@@H](CC(C)C)C(=O)N[C@@H](CC(C)C)C(=O)N[C@@H](CCCCN)C(=O)NCC(=O)NCC(=O)N1CCC[C@H]1C(=O)N[C@@H](CO)C(=O)N[C@@H](CO)C(=O)NCC(=O)N[C@@H](C)C(=O)N1CCC[C@H]1C(=O)N1CCC[C@H]1C(=O)N1CCC[C@H]1C(=O)N[C@@H](CO)C(=O)N[C@@H](CCCCN)C(N)=O)C(C)C (stereo partly drawn) [Compound P016] | 1924 nmol/kg (MTD for 2 weeks) | ≥ 1 mg/kg | no abnormalities were found | no substantial accumulation | ≥ 10 mg/kg | 1282 | more than 7 times | 1.05 | 96 nmol/kg | 0.5 mg/kg | 19.45%
